{
  "source": "paper PMC4091765",
  "about": "(Methods in molecular biology (Clifton, N.J.), 2013)",
  "key": {"PDE9A": {"target": "PDE9A (Homo sapiens, UniProt O76083)", "sequence (O76083 whole entry, species assumed)": "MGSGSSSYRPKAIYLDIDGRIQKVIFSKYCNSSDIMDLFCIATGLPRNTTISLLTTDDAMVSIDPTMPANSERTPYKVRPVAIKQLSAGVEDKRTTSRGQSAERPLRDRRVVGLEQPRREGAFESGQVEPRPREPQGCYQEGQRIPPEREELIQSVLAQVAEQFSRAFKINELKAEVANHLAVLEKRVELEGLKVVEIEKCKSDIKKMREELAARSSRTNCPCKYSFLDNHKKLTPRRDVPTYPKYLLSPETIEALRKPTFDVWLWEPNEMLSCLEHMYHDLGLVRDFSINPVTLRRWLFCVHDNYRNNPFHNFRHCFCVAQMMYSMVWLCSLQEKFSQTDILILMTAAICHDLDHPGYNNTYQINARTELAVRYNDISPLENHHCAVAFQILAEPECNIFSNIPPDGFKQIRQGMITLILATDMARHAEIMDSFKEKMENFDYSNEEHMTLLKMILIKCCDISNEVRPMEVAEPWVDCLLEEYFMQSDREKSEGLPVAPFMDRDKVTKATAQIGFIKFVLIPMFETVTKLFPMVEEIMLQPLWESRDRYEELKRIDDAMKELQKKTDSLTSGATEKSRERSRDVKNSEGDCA", "assay": "PDE assay using isothermal titration calorimetry", "settings": "ITC; for Ki: compound as inhibitor of PDE9; for Km: compound as substrate"}, "PDE8A": {"target": "PDE8A (Homo sapiens, UniProt O60658)", "sequence (O60658 whole entry, species assumed)": "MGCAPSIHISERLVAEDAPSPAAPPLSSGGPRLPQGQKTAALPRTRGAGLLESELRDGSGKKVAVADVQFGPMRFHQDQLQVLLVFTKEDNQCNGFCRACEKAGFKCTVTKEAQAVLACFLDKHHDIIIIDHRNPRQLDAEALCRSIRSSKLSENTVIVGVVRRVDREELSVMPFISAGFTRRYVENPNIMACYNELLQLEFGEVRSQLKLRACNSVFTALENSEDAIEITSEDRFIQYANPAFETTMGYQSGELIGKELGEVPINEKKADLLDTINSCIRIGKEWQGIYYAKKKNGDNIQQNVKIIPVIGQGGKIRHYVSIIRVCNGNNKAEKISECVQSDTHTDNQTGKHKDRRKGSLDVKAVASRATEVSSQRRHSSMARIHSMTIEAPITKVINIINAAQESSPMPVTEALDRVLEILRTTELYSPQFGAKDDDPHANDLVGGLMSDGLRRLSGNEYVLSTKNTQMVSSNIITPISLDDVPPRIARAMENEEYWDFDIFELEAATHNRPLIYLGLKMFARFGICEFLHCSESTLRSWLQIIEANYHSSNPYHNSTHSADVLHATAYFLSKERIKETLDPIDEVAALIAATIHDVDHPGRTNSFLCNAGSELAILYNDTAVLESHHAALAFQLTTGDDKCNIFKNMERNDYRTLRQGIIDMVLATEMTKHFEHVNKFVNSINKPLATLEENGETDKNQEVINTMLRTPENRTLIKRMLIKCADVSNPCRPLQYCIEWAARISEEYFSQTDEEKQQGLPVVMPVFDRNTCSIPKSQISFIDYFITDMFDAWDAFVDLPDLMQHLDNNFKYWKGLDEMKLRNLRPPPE", "assay": "PDE assay using isothermal titration calorimetry", "settings": "ITC, compound as substrate; n.h. = not hydrolyzed"}, "PDE5": {"system": "PDE5", "settings": "ITC, cited from earlier work"}, "PDEs": {"system": "PDEs", "assay": "ITC PDE assays, summary over the PDE panel", "settings": "result in words"}, "PDE1A": {"system": "PDE1A", "settings": "ITC, compound as substrate; cited from earlier work"}, "PDE1B": {"system": "PDE1B", "settings": "ITC, compound as substrate; cited from earlier work"}, "PDE1C": {"system": "PDE1C", "settings": "ITC, compound as substrate; cited from earlier work"}, "PDE2A": {"system": "PDE2A", "settings": "ITC, compound as substrate; cited from earlier work"}, "PDE4D": {"system": "PDE4D", "settings": "ITC, compound as substrate; n.h. = not hydrolyzed; cited from earlier work"}, "PDE6": {"system": "PDE6", "settings": "ITC, compound as substrate, cited from earlier work"}, "PDE10": {"system": "PDE10", "settings": "ITC, compound as substrate; cited from earlier work"}},
  "data": [
    {"smiles": "Nc1nc2c(nc(Sc3ccc(Cl)cc3)n2C2O[C@@H]3COP(=O)(O)O[C@H]3[C@H]2O)c(=O)[nH]1", "note": "(stereo in doubt) [8-pCPT-cGMP]", "values": [
      {"measurement": "Ki", "setting": "PDE9A", "value": 1290, "unit": "nM"}
    ]},
    {"smiles": "Nc1nc2c(nc(Br)n2[C@@H]2O[C@@H]3COP(=O)(O)O[C@H]3[C@H]2O)c(=O)[nH]1", "note": "[8-Br-cGMP]", "values": [
      {"measurement": "Km", "setting": "PDE8A", "value": 0.55, "unit": "µM"},
      {"measurement": "Ki", "setting": "PDE9A", "value": 770, "unit": "nM"}
    ]},
    {"smiles": "CO[C@@H]1[C@@H]2OP(=O)(O)OC[C@H]2O[C@H]1n1c(Sc2ccc(Cl)cc2)nc2c(N)ncnc21", "note": "[8-pCPT-2-0-Me cAMP]", "values": [
      {"measurement": "substrate property for PDE5", "setting": "PDE5; result in words", "value": "rather good substrate for PDE5"}
    ]},
    {"smiles": "Nc1ncnc2c1nc(Br)n2[C@@H]1O[C@@H]2COP(=O)(O)O[C@H]2[C@H]1O", "note": "[8Br-cAMP]", "values": [
      {"measurement": "Km", "setting": "PDE9A", "value": 5.99, "unit": "µM"}
    ]},
    {"smiles": "COC1C2OP(O)(=S)OCC2OC1n1c(Sc2ccc(Cl)cc2)nc2c(N)ncnc21", "note": "(stereo not shown) [Sp-8-pCPT-2-0-Me-cAMPS]", "values": [
      {"measurement": "substrate property for PDEs", "setting": "PDEs; any PDE of the panel", "value": "not a substrate for any PDE"},
      {"measurement": "inhibition of PDEs", "setting": "PDEs; several PDEs of the panel", "value": "quite a good inhibitor of several of them"}
    ]},
    {"smiles": "Nc1nc2c(ncn2[C@@H]2O[C@@H]3COP(=O)(O)O[C@H]3[C@H]2O)c(=O)[nH]1", "note": "[cGMP]", "values": [
      {"measurement": "Km", "setting": "PDE1A", "value": 8.2, "unit": "µM"},
      {"measurement": "Vmax", "setting": "PDE1A", "value": "20 ± 1.0", "unit": "µM/min/mg"},
      {"measurement": "Km", "setting": "PDE1B", "value": 5.4, "unit": "µM"},
      {"measurement": "Vmax", "setting": "PDE1B", "value": "2.6 ± 0.7", "unit": "µM/min/mg"},
      {"measurement": "Km", "setting": "PDE1C", "value": 4.6, "unit": "µM"},
      {"measurement": "Vmax", "setting": "PDE1C", "value": "1.4 ± 1.0", "unit": "µM/min/mg"},
      {"measurement": "Km", "setting": "PDE2A", "value": 31, "unit": "µM"},
      {"measurement": "Vmax", "setting": "PDE2A", "value": "176 ± 31", "unit": "µM/min/mg"},
      {"measurement": "Km", "setting": "PDE4D", "value": "n.h."},
      {"measurement": "Vmax", "setting": "PDE4D", "value": "n.h."},
      {"measurement": "Km", "setting": "PDE5; compound as substrate", "value": 2, "unit": "µM"},
      {"measurement": "Vmax", "setting": "PDE6; Vmax normalized, cGMP as substrate = 1", "value": "1.0 +/− 1.1"},
      {"measurement": "Km", "setting": "PDE6", "value": 10, "unit": "µM"},
      {"measurement": "Km", "setting": "PDE10", "value": 1.1, "unit": "µM"},
      {"measurement": "Vmax", "setting": "PDE10", "value": "1.6 ± 0.11", "unit": "µM/min/mg"},
      {"measurement": "Km", "setting": "PDE8A", "value": "n.h."},
      {"measurement": "Vmax", "setting": "PDE8A", "value": "n.h."},
      {"measurement": "Km", "setting": "PDE9A", "value": 0.2, "unit": "µM"}
    ]}
  ]
}
